Laboratory results: US20160084841A1, “Method for Predicting Clinical Effect of Immunotherapy” (INTERNATIONAL INSTITUTE OF CANCER IMMUNOLOGY, INC., priority 2013, published 2016)

Assays:
[1] = test system: anti-WT1332 peptide IgG antibody; experiment: ELISA using variant WT1 antigen peptide as immobilized antigen to assay anti-WT1332 peptide IgG antibody; type: binding, human; settings: serum diluted 100-fold; titer increased in WT1332-immunized patient, not in unimmunized patient; FIG. 18
Experimental: A vector expressing WT1-frg3 (SEQ ID NO: 57) as a GST-tagged protein was constructed using a pGEX-5X-3 vector (GE Healthcare Japan Corp.). The prepared vector was transferred to competent cells DH5α by heat shock. The vector-transferred E. coli was cultured. At the point in time when the OD600 value became 0.4 to 0.6, isopropyl-β-D-thiogalactoside (IPTG) was added at a final concentration of 1 mM to the medium to induce protein expression. The cells were further cultured for 3 hours. The bacterial cells were collected by centrifugation and then lysed in an SDS sample buffer (0.125 M Tris-HCl, 0.1 M DTT, 4% SDS, 10% sucrose, and bromophenol blue, pH 6.8). This lysate was fractionated on the basis of molecular weights by SDS-PAGE using a disc-type electrophoresis apparatus NA-1800 (Nihon Eido Corp.). A portion of each fraction thus collected by SDS-PAGE was stained with CBB, and a fraction containing WT1 was recovered. The purified protein was dissolved in an immobilizing buffer for ELISA (10 mM NaCO3, 30 mM NaHCO3, and 0.02% NaN3, pH 9.6) and used as an antigen for ELISA.
The GST-WT1 frag1 protein solution (10 ng/μL) was added at 100 μL/well to a 96-well plate for ELISA. The plate was left overnight at 37° C. to immobilize the antigen thereon. After washing with 0.05% TBST, blocking was performed by shaking at room temperature for 2 hours using a blocking buffer (1% gelatin/0.05% TBST). Then, the serum diluted 100-fold with 0.05% TBST was added thereto at 100 μL/well and reacted overnight at 4° C. […] The reaction was terminated with 1 N HCl, and the absorbance at 450 nm was then measured using a microplate reader (CORONA […] MTP-32).
(§1) To a 96-well reaction plate supplied with Peptide Coating Kit (Takara Bio Inc.) having amino groups (—NH2) attached to the bottom surface of the wells, a solution (4 μg/mL) of the WT1 peptide dissolved in a reaction buffer supplied with Peptide Coating Kit was added at 50 μL/well. […] The reaction was terminated with 1 N HCl, and the absorbance at 450 nm was then measured using a microplate reader (CORONA […] MTP-310Lab).

[2] = test system: malignant glioblastoma patient; experiment: Anti-WT1332 IgG antibody titer (ELISA) in serum of a patient given WT1332 peptide vaccine; type: in vivo, human; settings: one patient immunized with WT1332 peptide, FIG. 18
Description: (§2) From one malignant glioblastoma patient given WT1332 peptide vaccine (SEQ ID NO: 6), a serum sample was obtained before the start of administration of the vaccine, at 4 weeks after the start of administration, and at 1 year and 2 months after the start of administration. From one malignant thymic carcinoma patient given WT1235 peptide vaccine (WT1-CTL peptide (modified mp235-243) (SEQ ID NO: 3)) alone, a serum sample was obtained as a negative control in the same way as above. Each serum sample was stored at −20° C. until assay.
[…] The plate was left overnight at 37° C. to immobilize the antigen thereon. After washing with 0.05% TBST, blocking was performed by shaking at room temperature for 2 hours using a blocking buffer (1% gelatin/0.05% TBST). […] The reaction was terminated with 1 N HCl, and the absorbance at 450 nm was then measured using a microplate reader (CORONA […] MTP-32).
as §1

[3] = test system: anti-WT1235 peptide IgG antibody; experiment: ELISA using variant WT1 antigen peptide as immobilized antigen to assay anti-WT1235 peptide IgG antibody; type: binding, human; settings: serum of thymic carcinoma patient given WT1235 peptide; increase in titer detected; FIG. 19
Experimental: WK235-243 (SEQ ID NO: 62) and WT237-243 (SEQ ID NO: 63) were synthesized by GL Biochem (Shanghai) Corporation Ltd. WT1-frg2 (SEQ ID NO: 61) was prepared in the same way as in the aforementioned WT1-frg3 (SEQ ID NO: 57).
The measurement of the antibody titer using WT1-frg2 (SEQ ID NO: 61) was performed in the same way as in the aforementioned WT1-frg3 (SEQ ID NO: 57). The measurement of the antibody titer using WK235-243 (SEQ ID NO: 62) or WT237-243 (SEQ ID NO: 63) was performed in the same way as in the aforementioned WT332-347 (SEQ ID NO: 58), etc.

[4] = test system: recurrent malignant glioblastoma (GBM) patients; experiment: Anti-WT1-235 peptide IgG antibody titer (ELISA) in serum of GBM patients given WT1235 peptide vaccine; type: in vivo, human; settings: 2 months and 3 months after the start of administration compared with before, ELISA antigen WT1-235 peptide, FIG. 1
Experimental: 1-1 WT1 peptide immunotherapy was carried out in 72 GBM patients using WT1235 peptide (WT1-CTL peptide (modified mp235-243) (SEQ ID NO: 3)) as a WT1 peptide vaccine. […]
To a 96-well reaction plate supplied with Peptide Coating Kit (Takara Bio Inc.) having amino groups attached to the bottom surface of the wells, a solution (4 μg/mL) of the WT1-235 peptide dissolved in a reaction buffer supplied with Peptide Coating Kit was added at 50 μL/well. […] The reaction was terminated with 1 N HCl, and the absorbance at 450 nm was then measured using a microplate reader (CORONA […] MTP-310Lab).
The comparison between two groups was conducted using the Mann-Whitney test. […] The anti-WT1 antigen peptide antibody titer was measured using the serum negative for the anti-WT1 antigen peptide antibody (patient's serum before the start of WT1 peptide immunotherapy) and the average value plus twice the standard deviation=0.045. […]

[5] = test system: malignant thymic carcinoma patient; experiment: Anti-WT1332 / anti-WT1235 IgG antibody titer (ELISA) in serum of a patient given WT1235 peptide vaccine; type: in vivo, human
Description: as §2
The GST-WT1 frag1 protein solution (10 ng/μL) was added at 100 μL/well to a 96-well plate for ELISA. The plate was left overnight at 37° C. to immobilize the antigen thereon. After washing with 0.05% TBST, blocking was performed by shaking at room temperature for 2 hours using a blocking buffer (1% gelatin/0.05% TBST). Then, the serum diluted 100-fold with 0.05% TBST was added thereto at 100 μL/well and reacted overnight at 4° C. The plate was reacted with a peroxidase-labeled goat anti-human IgG antibody (Santa Cruz Biotechnology, Inc.) as a secondary antibody at room temperature for 2 hours. Then, a color was developed using a TMB kit (KPL, Kirkegaard & Perry Laboratories, Inc.). The reaction was terminated with 1 N HCl, and the absorbance at 450 nm was then measured using a microplate reader (CORONA […] MTP-32). […]

KRYFKLS [WT332-338]
ability as ELISA antigen to measure anti-WT1332 IgG antibody level in patient's serum [1]: could measure an anti-WT1332 IgG antibody level in patient's serum

KRYFKLSHLQMHSRKH [WT1332 peptide]
anti-WT1332 IgG antibody titer after immunization ([2]; ELISA antigen WT1-frg3): increased | anti-WT1332 IgG antibody titer after immunization ([2]; ELISA antigen WT332-347, WT334-342 or WT332-338): increased

KRYFKLSHLQMHSRKH [WT332-347]
ability as ELISA antigen to measure anti-WT1332 IgG antibody level in patient's serum [1]: could measure an anti-WT1332 IgG antibody level in patient's serum

CMTWNQMNK [WK235-243]
ability as ELISA antigen to measure anti-WT1235 IgG antibody level in patient's serum [3]: could measure an anti-WT1235 IgG antibody level in patient's serum

TWNQMNL [WT237-243]
ability as ELISA antigen to measure anti-WT1235 IgG antibody level in patient's serum [3]: could measure an anti-WT1235 IgG antibody level in patient's serum

CYTWNQMNL (Montanide ISA51 emulsion) [WT1235 peptide vaccine, emulsion with Montanide ISA51]
anti-WT1-235 peptide IgG antibody titer after the start of administration [4]: significantly increased | anti-WT1332 IgG antibody titer after immunization ([5]; negative control: one patient immunized with WT1235 peptide alone (unimmunized with WT1332 peptide), ELISA antigen WT1-frg3): not increased | anti-WT1235 IgG antibody titer ([5]; one thymic carcinoma patient, serum at 4 weeks and 7 months after start of administration, ELISA antigen WT1-frg2, FIG. 19): increase in anti-WT1235 IgG antibody titer was detected

YFKLSHLQM [WT334-342]
ability as ELISA antigen to measure anti-WT1332 IgG antibody level in patient's serum [1]: could measure an anti-WT1332 IgG antibody level in patient's serum
